Assay [1] concerns the target T1, BCR-NTRK1 BaF3 cells (Homo sapiens, UniProt P04629).
T1 construct: fused on or other part: P11274 (Breakpoint cluster region protein)
Description: BaF3 BCR-NTRK1 cell proliferation assay (ATPlite). The following applies: read-out: Inhibition of Cell Proliferation IC50, BCR/BaF3 TrkA. The class given is cell-based. In outline:
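IL-3-free growth, 3-day compound exposure (8-point 1:3 titration, top 10 μM, DMSO control), 37 °C 5% CO2. BaF3 10,000 or MV-4-11 25,000 cells/well, plated overnight beforehand. Read-out ATPlite luminescence vs concentration → IC50.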

The target in assay [2] is c-Kit kinase (Homo sapiens, UniProt P10721). The experiment in a line: c-Kit kinase biochemical activity assay (AlphaScreen, biotin-(E4Y)10 phosphorylation). The following applies: 100 μM ATP; read-out: Biochemical Inhibition IC50 Kit. In outline:
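AlphaScreen read-out (streptavidin donor, anti-phosphotyrosine PY20 acceptor beads, EDTA stop) of c-Kit activity. Reaction: 0.75 ng kinase, 100 µM ATP, 30 nM biotin-(E4Y)10, 25 mM HEPES pH 7.5, 2 mM MgCl2, 2 mM MnCl2, 5% DMSO, 1 h room temperature. IC50 derived over an 8-point, two-fold dilution series.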

T1 sequence (P04629 510-781): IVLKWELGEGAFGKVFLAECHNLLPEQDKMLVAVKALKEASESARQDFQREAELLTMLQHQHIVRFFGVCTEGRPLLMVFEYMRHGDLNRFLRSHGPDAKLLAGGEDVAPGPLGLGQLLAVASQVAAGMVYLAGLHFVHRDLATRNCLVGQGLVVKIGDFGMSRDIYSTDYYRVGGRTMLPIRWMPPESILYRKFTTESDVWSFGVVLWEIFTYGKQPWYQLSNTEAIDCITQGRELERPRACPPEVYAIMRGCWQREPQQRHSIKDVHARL
Chain of c-Kit kinase (P10721 26-976): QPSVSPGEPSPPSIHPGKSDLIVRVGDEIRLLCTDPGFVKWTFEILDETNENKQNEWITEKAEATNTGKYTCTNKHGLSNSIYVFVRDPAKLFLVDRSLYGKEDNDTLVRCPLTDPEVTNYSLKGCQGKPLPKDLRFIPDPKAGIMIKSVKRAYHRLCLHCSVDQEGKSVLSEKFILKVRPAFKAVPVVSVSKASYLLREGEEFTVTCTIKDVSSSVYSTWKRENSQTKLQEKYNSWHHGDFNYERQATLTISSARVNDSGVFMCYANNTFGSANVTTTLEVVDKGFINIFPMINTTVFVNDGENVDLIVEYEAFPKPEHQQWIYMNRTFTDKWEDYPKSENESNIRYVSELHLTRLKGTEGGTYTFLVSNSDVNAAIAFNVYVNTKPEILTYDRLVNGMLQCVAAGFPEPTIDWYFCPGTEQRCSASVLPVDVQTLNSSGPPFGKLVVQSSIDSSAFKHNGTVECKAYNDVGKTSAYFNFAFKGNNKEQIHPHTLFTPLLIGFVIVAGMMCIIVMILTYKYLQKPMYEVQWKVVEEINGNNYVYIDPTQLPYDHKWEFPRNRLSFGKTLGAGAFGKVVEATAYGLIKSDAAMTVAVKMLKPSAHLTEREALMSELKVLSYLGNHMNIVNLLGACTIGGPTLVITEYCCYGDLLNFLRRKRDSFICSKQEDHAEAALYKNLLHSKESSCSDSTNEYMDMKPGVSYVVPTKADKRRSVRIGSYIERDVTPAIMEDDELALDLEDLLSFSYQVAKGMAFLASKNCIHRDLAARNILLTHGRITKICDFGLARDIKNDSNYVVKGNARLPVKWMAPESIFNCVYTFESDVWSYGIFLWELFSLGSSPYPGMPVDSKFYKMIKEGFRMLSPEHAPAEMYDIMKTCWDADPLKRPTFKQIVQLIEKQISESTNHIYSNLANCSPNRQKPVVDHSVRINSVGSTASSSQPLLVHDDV

As to `Fc1nc(Nc2ccc(C3CC3)nc2)ccc1Cc1c[nH]c2ncccc12` [Compound P-3053, (6-Cyclopropyl-pyridin-3-yl)-[6-fluoro-5-(1H-pyrrolo[2,3-b]pyridin-3-ylmethyl)-pyridin-2-yl]-amine], the IC50 in assay [1] and in assay [2] was less than 100 nM throughout.
On to `Cc1ccc(Nc2ccc(C(=O)c3c[nH]c4ncnc(C5CC5)c34)c(F)n2)cn1` [Compound P-4031, (4-Cyclopropyl-7H-pyrrolo[2,3-d]pyrimidin-5-yl)-[2-fluoro-6-(6-methyl-pyridin-3-ylamino)-pyridin-3-yl]-methanone], for which the IC50 in assay [1] and in assay [2] was less than 100 nM each time.
Consider `Fc1cccc(Nc2ncc(Cc3c[nH]c4ncc(Cl)cc34)cn2)c1` [Compound P-3017, [5-(5-Chloro-1H-pyrrolo[2,3-b]pyridin-3-ylmethyl)-pyrimidin-2-yl]-(3-fluoro-phenyl)-amine], for which the results for the IC50 in assay [1] and in assay [2] were greater than 10000 nM and less than 1000 nM, respectively.
Turning to `Clc1cnc2[nH]cc(Cc3cnc(NC4CCCCCC4)nc3)c2c1` [Compound P-3006, [5-(5-Chloro-1H-pyrrolo[2,3-b]pyridin-3-ylmethyl)-pyrimidin-2-yl]-cycloheptyl-amine], the IC50 in assay [1] is less than 20000 nM; in assay [2], less than 1000 nM.
For `Cc1cnc2[nH]cc(Cc3cnc(Nc4ccc(C(C)(C)C)cc4)nc3)c2c1` [Compound P-3030, (4-tert-Butyl-phenyl)-[5-(5-methyl-1H-pyrrolo[2,3-b]pyridin-3-ylmethyl)-pyrimidin-2-yl]-amine amine], the IC50 in assay [1] is less than 10 nM; in assay [2], less than 100 nM.
Consider `Clc1cnc2[nH]cc(Cc3cnc(NC4CCCCC4)nc3)c2c1` [Compound P-3001, [5-(5-chloro-1H-pyrrolo[2,3-b]pyridin-3-ylmethyl)-pyrimidin-2-yl]-cyclohexyl-amine], for which the results for the IC50 in assay [1] and in assay [2] were greater than 10000 nM and less than 1000 nM, respectively.
For `Cc1cnc2[nH]cc(C(=O)c3ccc(Nc4ccc(C5CC5)nc4)nc3F)c2c1` [Compound P-3051, [6-(6-Cyclopropyl-pyridin-3-ylamino)-2-fluoro-pyridin-3-yl]-(5-methyl-1H-pyrrolo[2,3-b]pyridin-3-yl)-methanone], the IC50 in assay [1] and in assay [2] was less than 100 nM throughout.
`CCOc1ccc(Nc2ncc(Cc3c[nH]c4ncc(C)cc34)cn2)cn1` [Compound P-3027, (6-Ethoxy-pyridin-3-yl)-[5-(5-methyl-1H-pyrrolo[2,3-b]pyridin-3-ylmethyl)-pyrimidin-2-yl]-amine]: the IC50 is less than 100 nM in assay [1] and less than 10 nM in assay [2].
On to `CCn1cc(Nc2ccc(Cc3c[nH]c4ncnc(C)c34)c(F)n2)cn1` [Compound P-4013, (1-Ethyl-1H-pyrazol-4-yl)-[6-fluoro-5-(4-methyl-7H-pyrrolo[2,3-d]pyrimidin-5-ylmethyl)-pyridin-2-yl]-amine], for which the IC50 in assay [1] and in assay [2] was less than 1000 nM each time.
For the compound `COCCOc1ncnc2[nH]cc(Cc3ccc(Nc4ccc(OC)nc4)nc3F)c12` [Compound P-4019, {6-Fluoro-5-[4-(2-methoxy-ethoxy)-7H-pyrrolo[2,3-d]pyrimidin-5-ylmethyl]-pyridin-2-yl}-(6-methoxy-pyridin-3-yl)-amine], the IC50 in assay [1] and in assay [2] was less than 1000 nM in each case.
For the compound `CCOc1ccc(Nc2ccc(Cc3c[nH]c4ncnc(OC)c34)c(F)n2)cn1` [Compound P-4005, (6-Ethoxy-pyridin-3-yl)-[6-fluoro-5-(4-methoxy-7H-pyrrolo[2,3-d]pyrimidin-5-ylmethyl)-pyridin-2-yl]-amine], the IC50 in assay [1] and in assay [2] was less than 100 nM each time.
For the compound `CCc1ccc(Nc2ncc(Cc3c[nH]c4ncc(C)cc34)cn2)cc1` [Compound P-3025, (4-Ethyl-phenyl)-[5-(5-methyl-1H-pyrrolo[2,3-b]pyridin-3-ylmethyl)-pyrimidin-2-yl]-amine], the IC50 in assay [1] and in assay [2] was less than 10 nM throughout.
With `COc1ccc(Nc2ccc(C(=O)c3c[nH]c4ncnc(C5CC5)c34)c(F)n2)cn1` [Compound P-4022, (4-cyclopropyl-7H-pyrrolo[2,3-d]pyrimidin-5-yl)-[2-fluoro-6-(6-methoxy-pyridin-3-ylamino)-pyridin-3-yl]-methanone], the values for the IC50 in assay [1] and in assay [2] were less than 10 nM and less than 1000 nM, respectively.
Consider `CCn1cc(Nc2ccc(Cc3c[nH]c4ncnc(OCCOC)c34)c(F)n2)cn1` [Compound P-4014, (1-Ethyl-1H-pyrazol-4-yl)-{6-fluoro-5-[4-(2-methoxy-ethoxy)-7H-pyrrolo[2,3-d]pyrimidin-5-ylmethyl]-pyridin-2-yl}-amine], for which the IC50 in assay [1] was less than 1000 nM; in assay [2] it was less than 100 nM.
As for `Fc1nc(NC2CCC(F)(F)CC2)ccc1Cc1c[nH]c2ncnc(NC3CC3)c12` [Compound P-4129, N-cyclopropyl-5-[[6-[(4,4-difluorocyclohexyl)amino]-2-fluoro-3-pyridyl]methyl]-7H-pyrrolo[2,3-d]pyrimidin-4-amine], the IC50 in assay [1] and in assay [2] was less than 1000 nM in each case.
Regarding `Cc1cnc2[nH]cc(Cc3cnc(Nc4cc(C5CC5)n[nH]4)nc3)c2c1` [Compound P-3032, (5-Cyclopropyl-2H-pyrazol-3-yl)-[5-(5-methyl-1H-pyrrolo[2,3-b]pyridin-3-ylmethyl)-pyrimidin-2-yl]-amine], the IC50 in assay [1] and in assay [2] was less than 1000 nM each time.
Consider `CCn1cc(Nc2ccc(Cc3c[nH]c4ncnc(OC)c34)c(F)n2)cn1` [Compound P-4011, (1-Ethyl-1H-pyrazol-4-yl)-[6-fluoro-5-(4-methoxy-7H-pyrrolo[2,3-d]pyrimidin-5-ylmethyl)-pyridin-2-yl]-amine], for which the IC50 in assay [1] and in assay [2] was less than 1000 nM each time.
In the case of `Fc1nc(NC2CCC(F)(F)CC2)ccc1Cc1c[nH]c2ncnc(NCC(F)(F)F)c12` [Compound P-4128, 5-[[6-[(4,4-difluorocyclohexyl)amino]-2-fluoro-3-pyridyl]methyl]-N-(2,2,2-trifluoroethyl)-7H-pyrrolo[2,3-d]pyrimidin-4-amine], the IC50 in assay [1] is less than 1000 nM; in assay [2], greater than 1000 nM.
For `Clc1cnc2[nH]cc(Cc3cnc(NC4CC4)nc3)c2c1` [Compound P-3005, [5-(5-Chloro-1H-pyrrolo[2,3-b]pyridin-3-ylmethyl)-pyrimidin-2-yl]-cyclopropyl-amine], in that order: greater than 10000 nM and greater than 1000 nM.
In the same order, the values of `Cc1cncc(Nc2ccc(Cc3c[nH]c4ncnc(C5CC5)c34)c(F)n2)c1` [Compound P-4038, [5-(4-Cyclopropyl-7H-pyrrolo[2,3-d]pyrimidin-5-ylmethyl)-6-fluoro-pyridin-2-yl]-(5-methyl-pyridin-3-yl)-amine] are less than 1000 nM and less than 1000 nM.
As to `CCOc1ncnc2[nH]cc(Cc3ccc(Nc4ccc(C)nc4)nc3F)c12` [Compound P-4017, [5-(4-Ethoxy-7H-pyrrolo[2,3-d]pyrimidin-5-ylmethyl)-6-fluoro-pyridin-2-yl]-(6-methyl-pyridin-3-yl)-amine], the IC50 was less than 1000 nM in assay [1] and less than 100 nM in assay [2].
For `COc1ccc(Nc2ncc(Cc3c[nH]c4ncc(C)cc34)cn2)cc1F` [Compound P-3023, (3-Fluoro-4-methoxy-phenyl)-[5-(5-methyl-1H-pyrrolo[2,3-b]pyridin-3-ylmethyl)-pyrimidin-2-yl]-amine], the IC50 in assay [1] was less than 1000 nM; in assay [2], less than 100 nM.

Source of the values: patent publication US8901118B2, “Compounds and methods for kinase modulation, and indications therefor” (Plexxikon Inc., priority 2010, dated 2014).
